From paper PMC11513920, “Building Metabolically Stable and Potent Anti-HIV Thioether-Lipid Analogues of Tenofovir Exalidex: A thorough Pharmacological Analysis” (Journal of Medicinal Chemistry, 2024)
“And” between values parts separate entries of the source, which are not always exact repeats. Identical values can stand only once. Counter-ions that a name gives are not always drawn. Like-named read-outs stand apart in the source and are kept apart here.

Key:
[1] = depending on food intake; cited from earlier work
[2] = dogs; cited from earlier work
[3] = Human liver microsome stability; conditions: HLM 1 mg/mL, 3 μM compound, NADPH, 37 °C, 120 min course
Method: Human liver microsomes (HLMs, 20 mg/mL) and CD-1 mouse liver microsomes (MLMs, 20 mg/mL) were purchased from Xenotech. NADPH was purchased from Sigma-Aldrich and prepared in 10 mM stock solutions of distilled H2O (Invitrogen UltraPure). […] Test compounds and positive controls were initially dissolved in MeOH to make 10 mM stock solutions. Sample solutions were then further diluted in 70/30 MeOH/H2O to 500 μM. Next, the reactions were prepared by mixing human or mouse liver microsomes (55 μL) with potassium phosphate buffer (100 mM, 928 μL) in 1.5 mL Eppendorf tubes. The test compounds (6.6 μL of 500 μM solution) were subsequently added to the suspensions, and the reaction mixtures were incubated at 37 °C for 5 min. Afterward, the liver microsome reactions were initiated with 110 μL of 10 mM NADPH and further incubated at 37 °C for the designated time course of the study. […] Each test compound was run in tandem with positive and negative control experiments for quality assurance. Positive control reactions were conducted at a final volume of 550 μL for a single run of each time point.
For both LM and plasma stability assays, each data point was analyzed in duplicate using in-between blank washes to avoid carry over and to equilibrate the column for the subsequent runs. Averages of these duplicate for individual compounds at each time point were then normalized to the data at 0 min, representing 100% test compound remaining or 0% metabolism. Half-lives (t1/2) were calculated by plotting ln of % test compound remaining versus time and performing linear regression to determine slope.
Metabolic Stability Assays
Liver Microsome Stability
Liver Microsome Stability Assay Setup Example
Quenching Mixture: 100 µL MeOH with ISTD (2 µM d5-7-ethoxycoumarin).
Final Volume After Quenching: 200 µL (100 µL from reaction mixture + 100 µL quencher
solution; ISTD final concentration of 1.0 µM).

HepaRG cells [4] = experiment: HepaRG cellular uptake; conditions: for mean prodrug concentration in HepaRG cells: 20 µM; for HepaRG Cmax: 20 μM, HSA formulation 5:1, recorded after 3 h incubation
Description: (§1) Naturally, due the metabolic complexity of HepaRG cells, we specifically analyzed prodrug cellular uptake and stability, as represented by Cmax and intrinsic clearance (Clint,u) accordingly (Figure 7 and Table 9).
(§2) The HepaRG cell line (HPRGC10, Thermo Fisher Scientific) was used to evaluate the cellular permeability and metabolic stability for select final compounds in vitro. The cells were initially thawed with working media composed of HepaRG Thaw, Plate, & General Purpose Medium Supplement (HPRG670), Williams Medium E (100 mL), and GlutaMax (1 mL), all purchased from Thermo Fisher Scientific. […] After the thawing medium was aspirated from each well, the cells were cultured for an additional 6 days with working media consisting of HepaRG Maintenance/Metabolism Medium Supplement (HPRG720), Williams Medium E (500 mL), and GlutaMax (1 mL), all purchased from Thermo Fisher Scientific. Upon completing the 7-day culture period, HepaRG cells were plated in enough wells to allow for duplicate analysis of prodrugs in two independent cellular uptake or metabolic stability experiments. All studied compounds were formulated with human serum albumin (HSA, 5:1 compound to HSA molar ratio) and subsequently diluted to a 20 μM final concentration with assay medium composed of serum-free INVITROGRO HI Medium and TORPEDO Antibiotic Mix purchased from BioIVT. For cellular uptake determinations, the maintenance/metabolism medium was first aspirated from each well, and then the plated cells were spiked with 1.0 mL of test compound stock solution. Subsequently, the plate was incubated at 37 °C under 5% CO2 environment over the desired time course (seven data points/compound). Blank wells not treated with prodrug were included in assay runs as controls and initial time points (0 min). At each time point, the test compound solution was removed from the appropriate wells, and the plated cells were washed with 1.0 mL of DPBS twice. The HepaRG cells were then extracted with 500 μL of cold ISTD solution (1 μM 7-ethoxy-d5-coumarin in 70/30 MeOH/H2O), and the quenched aliquots were centrifuged at 15,000 g for 10 min at 4 °C. […] After obtaining prodrug Cmax and Tmax values from the cellular uptake assay, HepaRG metabolic stability was then assessed. Following the initial 7-day culture procedure, the maintenance/metabolism medium was aspirated from each well, and the plated cells were spiked with 1.0 mL of test compound stock solution. […] The test compound solution was then removed from each well and replaced with untreated dilution medium (i.e., serum-free INVITROGRO HI Medium and TORPEDO Antibiotic Mix), initializing the stability determination. The HepaRG plate was once more incubated at 37 °C under 5% CO2 atmosphere over the desired time course (nine data points/compound), and sample preparation and analysis were handled in identical fashion to cellular uptake experiments.

HepaRG cells [5] = experiment: HepaRG cellular metabolic stability; conditions: for HepaRG t1/2: after 3 h loading at 20 μM, 37 °C; for HepaRG Clint,u: calculated from cellular t1/2
Description: as §1, §2

[6] = liver, p.o. 10 mg/kg; cited from earlier work
[7] = plasma, p.o. 10 mg/kg; cited from earlier work
in vitro [8] = conditions: human, HepaRG Cmax, 20 μM, HSA formulation 5:1, recorded after 3 h incubation
Description: as §1, §2

[9] = Cellular cytotoxicity (cell viability, CellTiter 96 or resazurin); conditions: human, CC50, HEK293T cells, compounds formulated with HSA (5:1)
in vitro [10] = conditions: human, other cell line
Description: as §1, §2

HepaRG cellular uptake = conditions: human, HepaRG Cmax, 20 μM, HSA formulation 5:1, recorded after 3 h incubation
Description: as §1, §2

[11] = HepaRG cellular metabolic stability; conditions: human, other cell line
Description: as §1, §2

HEK293T cells = tested on: HEK293T cells; parameters: method as in PMID 34459598; conditions: previously reported lead; cited from earlier work
[12] = tested on: HIV-1 subtype C strain MJ4; parameters: method as in PMID 34459598; conditions: previously reported lead; cited from earlier work
[13] = HepaRG Clint,u, calculated from cellular t1/2
[14] = HepaRG t1/2, after 3 h loading at 20 μM, 37 °C

SMILES | mean prodrug concentration in HepaRG cells (HepaRG cells [4]; 0.5 h) [ng/mL] | mean prodrug concentration in HepaRG cells (HepaRG cells [4]; 1 h) [ng/mL] | mean prodrug concentration in HepaRG cells (HepaRG cells [4]; 2 h) [ng/mL] | mean prodrug concentration in HepaRG cells (HepaRG cells [4]; 3 h) [ng/mL] | mean prodrug concentration in HepaRG cells (HepaRG cells [4]; 5 h) [ng/mL] | mean prodrug concentration in HepaRG cells (HepaRG cells [4]; 7 h) [ng/mL] | HepaRG Cmax (HepaRG cells [4]) [ng/mL] | HepaRG t1/2 (HepaRG cells [5]) [min] | HepaRG Clint,u (HepaRG cells [5]) [μL/min/million cells] | Prodrug AUC0-24h [6] | Prodrug Cmax [6] [ng/mL] | Prodrug AUC0-24h [7] [ng·h/mL] | Prodrug Cmax [7] [ng/mL] | Prodrug Tmax [7] [min] | Prodrug t1/2 [7] [min] | k [7] | also measured
CC(C)OC(=O)OCOP(=O)(CO[C@H](C)Cn1cnc2c(N)ncnc21)OCOC(=O)OC(C)C [TDF, tenofovir disoproxil fumarate] | – | – | – | – | – | – | – | – | – | – | – | – | – | – | – | – | oral bioavailability [1]: 25–40%
CC(C)OC(=O)[C@H](C)N[P@](=O)(CO[C@H](C)Cn1cnc2c(N)ncnc21)Oc1ccccc1 [TAF, tenofovir alafenamide] | – | – | – | – | – | – | – | – | – | – | – | – | – | – | – | – | share of oral dose undergoing hepatic processing [2]: 65%
CCCCCCCCCCCCCCCCOCCCOP(=O)(O)CO[C@H](C)Cn1cnc2c(N)ncnc21 [TXL, tenofovir exalidex] | 258.83 | 311.46 | 378.66 | 397.09 | 468.27 | 536.47 | 397.1 ± 1.4 | 44.3 ± 0.5 | 28.5 | 4970 ng·h/mL | 2730 | 301 | 125 | 60 | 175 | 0.237 | HLM t1/2 [3]: 42 min and 41.6 ± 9.0 ^d min; Prodrug Tmax [6]: 60 min; Cmax (in vitro [8]): 397 ng/mL; CC50 at 48 h [9]: 97.6 ± 2.7 µM; hepatocyte CLint (in vitro [10]; [13]): ~29 µL/min/1e6 cells; half-life (in vitro [10]; [14]): 43 to 44 min
C[C@H](Cn1cnc2c(N)ncnc21)OCP(=O)(O)OCCCOCCCCCCCCCCCCCCCC(F)(F)F.N [compound 1] | 141.43 | 180.34 | 319.83 | 337.43 | 321.56 | 417.13 | 337.4 ± 1.0 | 42.9 ± 0.5 | 29.4 | 109,000 h·ng/mL | 8710 | 1280 | 125 | 120 | 520 | 0.080 | Cmax at 3 h, 20 μM (HepaRG cellular uptake): 337 ng/mL; hepatocyte CLint at 20 μM [11, 13]: ~29 µL/min/1e6 cells; half-life at 20 μM [11, 14]: 43 to 44 min; CC50 (HEK293T cells): > 100 µM; IC50 [12]: 0.049 ± 0.01 µM
